Assay results: US20240254510A1, “METHODS FOR GENERATING MECHANICALLY-RESPONSIVE CELLS AND USES THEREOF” (Washington University, priority 2021, published 2024)

Legend:
Piezo1 = assay: RNA-seq of tissue engineered cartilage after 80% strain or Yoda1 stimulation; assay type: cell-based; details: 80% strain or Yoda1, RNA-seq
Method: Tissue engineered cartilage tissues were either mechanically loaded to 80% strain or stimulated with the Piezo1 agonist Yoda1. Control tissues (FS group) were cultured in vehicle control media and left under free-swelling (non loaded) conditions. RNA-seq was used to assess the transcriptomic regulation to high mechanical loading or Yoda1-stimulation.
Volcano plot projections of gene targets that are differentially regulated by mechanical loading to 80% strain (FIG. 9 left graph) or Yoda1 stimulation (FIG. 9 right graph) display a range of targets that are regulated by Piezo1 stimulation (targets highlighted in red are |LFC|>1 and FDR (padj)<0.05).

TRPV4 [1] = target: T1, TRPV4 (Sus scrofa, UniProt B3VP30); assay: IL-1Ra production by mechanogenetic cartilage constructs (ELISA); assay type: cell-based, porcine; details: NFKBr-IL1Ra tissues, 1 nM GSK101 3 hours/day over 5 days vs DMSO
T1 construct: endogenous in cells; host or cells: primary porcine articular chondrocytes (femurs of pigs from a local abattoir)
T1 sequence (B3VP30 1-871): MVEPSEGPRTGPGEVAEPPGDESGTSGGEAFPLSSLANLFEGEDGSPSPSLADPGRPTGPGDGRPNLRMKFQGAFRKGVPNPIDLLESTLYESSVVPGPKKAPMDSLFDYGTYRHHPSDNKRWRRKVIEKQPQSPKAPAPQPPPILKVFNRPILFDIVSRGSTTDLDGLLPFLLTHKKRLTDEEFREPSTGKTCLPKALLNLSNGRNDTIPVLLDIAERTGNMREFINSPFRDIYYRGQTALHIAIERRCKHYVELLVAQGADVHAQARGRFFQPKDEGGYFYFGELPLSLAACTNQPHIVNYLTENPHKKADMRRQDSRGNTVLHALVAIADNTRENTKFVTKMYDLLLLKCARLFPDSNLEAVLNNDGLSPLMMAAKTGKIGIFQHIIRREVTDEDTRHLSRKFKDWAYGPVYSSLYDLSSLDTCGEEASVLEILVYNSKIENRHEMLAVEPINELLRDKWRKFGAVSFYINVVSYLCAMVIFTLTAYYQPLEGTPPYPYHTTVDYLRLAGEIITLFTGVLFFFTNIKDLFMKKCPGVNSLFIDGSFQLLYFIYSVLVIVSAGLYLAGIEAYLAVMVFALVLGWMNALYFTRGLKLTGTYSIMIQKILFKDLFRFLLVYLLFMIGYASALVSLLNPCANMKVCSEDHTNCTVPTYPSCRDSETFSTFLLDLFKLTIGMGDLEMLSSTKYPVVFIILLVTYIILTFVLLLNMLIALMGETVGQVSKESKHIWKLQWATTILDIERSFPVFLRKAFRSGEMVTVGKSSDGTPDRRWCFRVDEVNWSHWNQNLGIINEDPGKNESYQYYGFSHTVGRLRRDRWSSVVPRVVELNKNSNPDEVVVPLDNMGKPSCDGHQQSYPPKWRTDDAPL
Source text: Synthetic mechanogenetic circuits respond to TRPV4 activation to drive transgene expression: TRPV4 activation in response to mechanical loading up-regulates a diverse group of targeted genes. On the basis of the TRPV4-activated signaling pathway, activation of the nuclear factor κ light chain enhancer of activated B cells (NF-κB) pathway was identified and up-regulation of the prostaglandin-endoperoxide synthase 2 (PTGS2) gene as two distinct avenues to construct TRPV4-responsive synthetic mechanogenetic gene circuits. […]
Osmotic stimulation—For calcium imaging studies, osmotic loading media were prepared using Hanks' balanced salt solution medium (Gibco). […] These media were titrated to hypo-osmotic media by adding distilled water and measured with a freezing point osmometer (Osmette 2007; Precision Systems). […]
Mechanogenetic circuit testing outcome measures: Assessing mechanogenetic tissue construct activation in IL-1Ra-producing constructs was measured with an enzyme-linked immunosorbent assay for mouse IL-1Ra (R&D Systems) according to the manufacturer's protocols. […]

TRPV4 [2] = target: T1, TRPV4; assay: Microarray transcriptomic profile of engineered cartilage after mechanical loading or GSK101; assay type: cell-based, porcine
Source text: TRPV4 activation in chondrocytes induces transient anabolic and inflammatory signaling networks: Next, it was sought to understand the time course of specific downstream signaling pathways and GRNs regulated by mechanical activation of TRPV4 using microarray analysis. Because TRPV4 is a multimodal channel, downstream signaling is likely dependent on the activation mode as well as cell and tissue type. For these studies, primary porcine chondrocytes were cast in agarose to create engineered cartilage constructs and subjected to either compressive mechanical loading [10% sinusoidal peak-to-peak strain at 1 Hz for 3 hours as described previously] or pharmacologic stimulation with the TRPV4 agonist GSK101 (1 nM for 3 hours), or left unloaded (free-swelling controls), and measured the transcriptional activity at 0, 3, 12, and 20 hours following an initial round of stimulation and then at 24 and 72 hours after additional daily bouts of mechanical loading or GSK101 (n=3 per condition per time point; FIG. 3A). […] Up-regulation of these targets was immediate and subsided quickly, with transcript levels returning to baseline 12 to 20 hours after activation.
Microarray collection and analysis: After a 14-day preculture, engineered cartilage constructs (04 mm×2.25 mm) were stimulated under 10% compressive loading or 1 nM GSK101 for 3 hours per day for 3 days. Unstimulated controls (free-swelling) constructs were cultured under identical conditions. Immediately after stimulation, constructs were washed and then fed with culture medium. Constructs were snap-frozen in liquid N2 at 0, 3, 6, 12, 20, 24, and 72 hours after initial stimulation. Total RNA was extracted from the constructs using a pestle homogenizer and the Norgen Biotek RNA/protein purification plus kit. RNA quantity and quality were assessed with NanoDrop (Thermo Fisher Scientific) and the Agilent Bioanalyzer. Total RNA was processed using the Ambion WT expression labeling kit and the Porcine Gene 1.0 ST Array (Affymetrix). […]

TRPV4 [3] = assay: RNA-sequencing of tissue engineered cartilage: mechanical loading, GSK101, IL-1α; assay type: cell-based; details: GSK101 TRPV4 activation, 24 hour time course
Method: RNA-sequencing was performed to assess mechanically-sensitive gene targets that are distinct from a cellular inflammation response. […] Targets of interest were selected as targets that were shared between stimulation to mechanical loading and GSK101 agonist activation of TRPV4 but not stimulated by IL-1α inflammation.

Structure (SMILES): Clc1cccc(Cl)c1CSc1nnc(-c2cnccn2)s1 [Yoda1]
- gene targets similarly regulated by mechanical loading and Yoda1 stimulation (Piezo1): ADAMTS1, IGSF9B, PTGS2, NR4A2, LOC100512181, NR4A1, INHBA, and CSRNP2

Structure (SMILES): CC(C)C[C@H](NC(=O)c1cc2ccccc2s1)C(=O)N1CCN(C(=O)[C@H](CO)NS(=O)(=O)c2ccc(Cl)cc2Cl)CC1 [GSK101]
- circuit response to pharmacologic activation of TRPV4 (TRPV4 [1]): activated the NFKBr-IL1Ra circuit
- genes commonly responsive to both mechanical loading and pharmacologic activation of TRPV4 (TRPV4 [2]; 0, 24 and 72 hours): 15 genes
- transcripts repeatedly responsive to GSK101 supplementation (TRPV4 [2]; 0, 24 and 72 hours, daily bouts of 1 nM GSK101): 112 transcripts
- transcripts up-regulated under both mechanical loading and pharmacologic stimulation (TRPV4 [2]; first 20 hours after initial stimulation, GSK101 1 nM for 3 hours, vs unloaded controls): 43 transcripts
- regulation of FGF1, PMEPA1 and snora70 (TRPV4 [3]): significantly upregulated
